Reference: US20020035146A1, “Antifungal compounds and compositions and antifungal use thereof” (priority 2000, published 2002)

What was measured:
Pythium ultimum = assay type: cell-based; settings: mycelial homogenate, 25° C., 2 days, compound encapsulated in α-cyclodextrin (0.14% by weight)
Pyricularia oryzae = assay type: cell-based; settings: spore suspension, 25° C., 5 days, compound encapsulated in α-cyclodextrin (0.14% by weight)
[1] = test system: Botrytis rot on rose petals; test: Suppression of Botrytis rot on rose petals; assay type: in vivo; settings: white rose petals exposed to 100 ppm in the gas phase for 90 minutes before inoculation; assessed after 10 days; two trials combined; control 66.7
Experimental: Freshly cut white roses were purchased from Zieger & Sons, Inc. rose growers. Non senescing petals were chosen to perform the experiment. Petals were placed in plastic petri dishes (100×20 mm) each containing a moist #3 Whatman filter paper with one petal per petri dish.
Compound 1, formulated as in Example 1 (0.778 g) was dissolved in 20 ml hot water in a 100 ml jar sealed with a cap. When the powder was dissolved, the jar was placed in a 4.8 liter cabinet containing three petri dishes (without the lids) with petals. The cap of the jar was quickly removed and the cabinets sealed for ninety (90) minutes. The concentration of Compound 1 in the gas phase was 100 ppm.
After exposure to Compound 1 at 100 ppm the petals were inoculated with two 20μl drops of spore suspension containing 1×10^6 spores per ml. Controls were inoculated without prior exposure to Compound 1.
Lids were placed on the petri dishes and the dishes were transferred to a plant growth chamber set at a 12 hour photoperiod, a 20° C. day temperature and 18° C. night temperature, and 70% relative humidity to allow disease development. The number of petals with sporulating lesions was determined after 10 days. Two trials were conducted with 3 petals per treatment in each trial. The combined results from the two trials were as follows: […]

Septoria nodorum = assay type: cell-based; settings: spore suspension, 25° C., 2 days, compound encapsulated in α-cyclodextrin (0.14% by weight)
Botrytis cinerea spores = test: Inhibition of germination of Botrytis cinerea spores (germination-associated adhesion in microtiter plates, sulforhodamine B); assay type: cell-based; settings: B. cinerea spores in SDB, 25° C., 5.5 hours; compound 1 encapsulated in α-cyclodextrin (0.14% by weight)
Experimental: Compounds were evaluated for the ability to inhibit germination of Botrytis cinerea spores using an assay which measures the inhibition of germination-associated adhesion in microtiter plates. […] This solution was then diluted with SDB to give a solution concentration of compound 2 of 1000 ppm. Comparison compound, AVG, was dissolved in SDB at 5 mg/ml. Two-fold serial dilutions of the solutions of these compounds in SDB were made in 100 μl aliquots of SDB in 96-well microtiter plates. Spore suspension of B. cinerea (100 μl at 2×10^5 spores/ml) was added to the wells. The plates were then incubated at 25° C. for 5.5 hours at which time spores in control wells had germinated. The medium containing unbound spores was removed by inverting and flicking the microtiter plate to remove as much liquid as possible. Quantitation of the adhered spores was achieved by measuring their cellular protein content using sulforhodamine B (see Skehan et al., Journal of the National Cancer Institute, 82, 1107-1112 (1990)), measuring absorbance at 564 nm. Inhibition of adhesion was determined by comparing the absorbance value in a well containing fungicide with the absorbance in control wells without fungicide. EC50 values for germination inhibition were determined from dose-response curves.

[2] = test system: Colletotrichum lagenarium; assay type: cell-based; settings: spore suspension, 25° C., 5 days, compound encapsulated in α-cyclodextrin (0.14% by weight)
Rhizoctonia solani = assay type: cell-based; settings: mycelial homogenate, 25° C., 5 days, compound encapsulated in α-cyclodextrin (0.14% by weight)
Botrytis cinerea = test: Technical material v. formulation: inhibition of fungal growth in sealed vials (sulforhodamine B); assay type: cell-based; settings: technical material added in acetone, 16 hours
Experimental: Since compound 1 is a gas at room temperature its activity as a technical material in solution was evaluated in sealed vials with a small head space as follows. Compound 1, formulated by encapsulation in a-cyclodextrin, was also tested for comparison.
Compound 1 (technical material) was added to 21×50 mm glass vials on dry ice as the appropriate amount of a 14% (w/v) solution in acetone to provide the desired concentrations. (The acetone solutions were kept on dry ice or in a freezer at −80° C. until used.) Controls received the same volumes of acetone alone. A spore suspension (8 ml) of Botrytis cinerea at 2.5×10^4 spores/ml in two-fold diluted SDB was added to each vial. The vials were immediately sealed with polyethylene plugs and placed in a […] incubator for 16 hours. The extent of fungal growth in the vials was determined by measuring their cellular protein content using sulforhodamine B (Skehan, et al., Journal of the National Cancer Institute 82, 1107-1112 (1990)), and the percent inhibition of growth was calculated by comparing growth in the treatments with growth in the controls.
The desired amounts of Compound 1, formulated by encapsulation in α-cyclodextrin ([…]) were added to glass vials. A spore suspension (8 ml) of Botrytis cinerea at 2.5×10^4 spores/ml in two-fold diluted SDB was added to each vial, and vials processed as described above.

Phytophthora capsici = assay type: cell-based; settings: spore suspension, 25° C., 5 days, compound encapsulated in α-cyclodextrin (0.14% by weight)

| SMILES | EC50 (mycelial growth) (Pythium ultimum) [ppm] | EC50 (mycelial growth) (Pyricularia oryzae) [ppm] | Petals with sporulating lesions (%) [1] [%] | EC50 (mycelial growth) (Septoria nodorum) [ppm] | EC50 for germination inhibition (Botrytis cinerea spores) [ppm] | EC50 (mycelial growth) [2] [ppm] | EC50 (mycelial growth) (Rhizoctonia solani) [ppm] | % Inhibition of growth (Botrytis cinerea; 175 ppm) [%] | % Inhibition of growth (Botrytis cinerea; 350 ppm) [%] | % Inhibition of growth (Botrytis cinerea; 525 ppm) [%] | EC50 (mycelial growth) (Phytophthora capsici) [ppm] |
| --- | --- | --- | --- | --- | --- | --- | --- | --- | --- | --- | --- |
| CC1=CC1 [Compound 1, 1-methylcyclopropene] | 2.6 | 6.7 | 16.7 | 22.5 | 37 | >70 | 7.4 | 30.1 | 99.4 | 99.8 | 6.9 |
| CCCCCCCCC1=CC1(F)F [Compound 2, 1-n-octyl-3,3-difluorocyclopropene] |  |  |  |  | 3.3 |  |  |  |  |  |  |
